Values quoted from earlier work, collected in US20020022041A1, “Composition and process for treating pollution” (priority 2000, published 2002).

conditions: non-toxic as defined by Section 313 Title III of SARA

Row | SMILES | Toxicity
1 | CCCCOCCOCCO [2-, 2-(2-butoxyethoxy)ethanol] | Non toxic
2 | CCCCCCCCCCCCOP(=O)(O)O [Lauryl Phosphate Soln, Lauryl Phosphate] | Non toxic
3 | CCCCCCCC/C=C\CCCCCCCC(=O)O [Oleic Acid] | Non toxic
